Measured values as given in ChEMBL document CHEMBL4706528, “The design, synthesis and anti-tumor mechanism study of new androgen receptor degrader” (Eur J Med Chem, 2020).
pIC50: −log10 of the molar value. Active and inactive are the calls of the source. No cut-off for these calls is given here.

How the values were obtained:
[1] = target: T1, Androgen receptor (Homo sapiens) (UniProt P10275); assay: Selective androgen receptor degradation activity at androgen receptor in human LNCaP cells assessed as down regulation of protein level at 10 uM after 24 hrs in presence of MG132 by Western blot analysis; assay type: cell-based
T1 sequence (whole entry): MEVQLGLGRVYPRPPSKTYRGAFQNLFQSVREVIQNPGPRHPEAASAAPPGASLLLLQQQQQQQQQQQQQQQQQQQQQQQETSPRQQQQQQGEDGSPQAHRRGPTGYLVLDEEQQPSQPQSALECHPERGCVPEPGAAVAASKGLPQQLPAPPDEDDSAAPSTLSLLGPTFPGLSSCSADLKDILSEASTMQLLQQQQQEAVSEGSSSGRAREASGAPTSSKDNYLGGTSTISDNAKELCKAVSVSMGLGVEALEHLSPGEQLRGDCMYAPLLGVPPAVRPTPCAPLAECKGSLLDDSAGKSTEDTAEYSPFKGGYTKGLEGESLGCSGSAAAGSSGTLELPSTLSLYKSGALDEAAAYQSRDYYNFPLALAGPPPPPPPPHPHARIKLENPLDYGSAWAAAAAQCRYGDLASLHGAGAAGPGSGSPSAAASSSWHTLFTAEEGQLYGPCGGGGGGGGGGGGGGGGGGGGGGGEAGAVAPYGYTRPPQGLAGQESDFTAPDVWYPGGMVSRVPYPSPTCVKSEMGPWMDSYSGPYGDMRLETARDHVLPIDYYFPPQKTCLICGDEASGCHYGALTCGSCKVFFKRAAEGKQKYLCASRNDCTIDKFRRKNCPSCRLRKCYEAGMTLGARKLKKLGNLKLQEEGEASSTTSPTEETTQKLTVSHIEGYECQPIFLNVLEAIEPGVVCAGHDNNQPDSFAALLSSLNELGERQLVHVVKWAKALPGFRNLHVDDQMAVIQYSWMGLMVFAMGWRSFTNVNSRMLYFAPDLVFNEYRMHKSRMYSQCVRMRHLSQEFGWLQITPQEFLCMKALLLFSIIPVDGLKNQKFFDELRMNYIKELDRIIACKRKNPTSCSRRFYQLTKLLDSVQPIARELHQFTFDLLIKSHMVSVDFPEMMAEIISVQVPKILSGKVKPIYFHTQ

Progesterone receptor = target: T2, Progesterone receptor (Homo sapiens, UniProt P06401); assay: Induction of downregulation of progesterone receptor in human T47D cells at 10 uM measured after 24 hrs by Western blot analysis; assay type: cell-based
T2 sequence (P06401 whole entry): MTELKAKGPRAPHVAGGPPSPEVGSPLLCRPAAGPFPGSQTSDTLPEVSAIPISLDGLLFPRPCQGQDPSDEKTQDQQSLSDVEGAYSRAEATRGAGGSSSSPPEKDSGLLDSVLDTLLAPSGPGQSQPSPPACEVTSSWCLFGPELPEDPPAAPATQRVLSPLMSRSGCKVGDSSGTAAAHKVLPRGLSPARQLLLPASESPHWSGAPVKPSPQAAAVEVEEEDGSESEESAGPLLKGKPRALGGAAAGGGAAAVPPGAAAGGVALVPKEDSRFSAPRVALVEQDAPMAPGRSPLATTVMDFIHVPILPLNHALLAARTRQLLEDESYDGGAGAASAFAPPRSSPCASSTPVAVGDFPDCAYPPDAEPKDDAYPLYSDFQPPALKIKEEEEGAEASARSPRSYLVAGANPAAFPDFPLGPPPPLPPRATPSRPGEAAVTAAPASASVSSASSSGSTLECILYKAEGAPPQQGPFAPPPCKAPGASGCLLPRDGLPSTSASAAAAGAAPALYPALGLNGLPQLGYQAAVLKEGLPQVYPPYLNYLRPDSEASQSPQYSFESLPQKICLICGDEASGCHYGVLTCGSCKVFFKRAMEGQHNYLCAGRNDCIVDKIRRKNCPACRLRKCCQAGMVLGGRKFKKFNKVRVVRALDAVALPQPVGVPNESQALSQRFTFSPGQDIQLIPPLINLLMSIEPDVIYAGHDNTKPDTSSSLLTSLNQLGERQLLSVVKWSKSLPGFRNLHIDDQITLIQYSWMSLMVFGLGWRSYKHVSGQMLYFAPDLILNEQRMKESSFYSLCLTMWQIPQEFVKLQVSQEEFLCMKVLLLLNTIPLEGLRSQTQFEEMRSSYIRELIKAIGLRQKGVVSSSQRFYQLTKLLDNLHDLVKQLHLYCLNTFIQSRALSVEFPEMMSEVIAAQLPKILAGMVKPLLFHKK

[2] = target: Transmembrane protease serine 2 (Homo sapiens) (UniProt O15393); assay: Induction of downregulation of TMPRSS2 (unknown orgin) human LNCaP cells at 2 uM after 24 hrs by Western blot analysis
Transmembrane protease serine 2 (Homo sapiens), sequence (O15393 1-255 limits assumed): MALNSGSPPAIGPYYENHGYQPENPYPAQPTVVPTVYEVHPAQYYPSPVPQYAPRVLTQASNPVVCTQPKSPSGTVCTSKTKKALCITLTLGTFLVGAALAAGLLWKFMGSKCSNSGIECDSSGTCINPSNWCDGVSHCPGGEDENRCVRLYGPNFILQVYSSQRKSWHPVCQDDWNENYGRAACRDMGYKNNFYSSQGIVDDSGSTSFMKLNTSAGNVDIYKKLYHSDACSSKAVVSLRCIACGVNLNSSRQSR
Transmembrane protease serine 2 (Homo sapiens), sequence (O15393 256-492 limits assumed): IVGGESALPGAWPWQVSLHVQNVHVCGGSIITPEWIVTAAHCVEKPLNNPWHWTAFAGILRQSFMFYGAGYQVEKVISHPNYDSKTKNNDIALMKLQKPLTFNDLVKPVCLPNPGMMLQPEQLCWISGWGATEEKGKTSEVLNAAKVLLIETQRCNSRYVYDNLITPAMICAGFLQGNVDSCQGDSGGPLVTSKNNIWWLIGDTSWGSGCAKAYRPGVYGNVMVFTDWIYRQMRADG

LNCaP [3] = assay: Induction of apoptosis in human LNCaP cells assessed as early apoptotic cells level at 10 micromol/L incubated for 24 hrs by Annexin V/PI staining staining based flow cytometry (reference value: 2.09%); assay type: functional; settings: dose 10 µmol/L, at 10 µM
LNCaP [4] = assay: Antiproliferative activity against androgen-positive human LNCaP cells assessed as cell growth inhibition measured after 72 hrs by SRB assay; assay type: functional, cell-based
SGC-7901 = assay: Antiproliferative activity against androgen-positive human SGC-7901 cells assessed as cell growth inhibition measured after 72 hrs by SRB assay; assay type: functional, cell-based; settings: SGC-7901, 72 h
LNCaP [5] = assay: Induction of cell cycle arrest in human LNCaP cells assessed as accumulation at S phase at 2 micromol/L after 24 hrs by RNase A/PI-staining based flow cytometric analysis (reference value: 20.69%); assay type: functional; settings: dose 2 µmol/L, at 2 µM
LNCaP [6] = assay: Induction of cell cycle arrest in human LNCaP cells assessed as accumulation at S phase at 10 micromol/L after 24 hrs by RNase A/PI-staining based flow cytometric analysis (reference value: 20.69%); assay type: functional; settings: dose 10 µmol/L, at 10 µM
[7] = target: Transmembrane protease serine 2 (Homo sapiens) (UniProt O15393); assay: Induction of downregulation of TMPRSS2 (unknown orgin) human LNCaP cells at 1 uM after 24 hrs by Western blot analysis
LNCaP [8] = assay: Induction of apoptosis in human LNCaP cells assessed as late apoptotic cells level at 10 micromol/L incubated for 24 hrs by Annexin V/PI staining staining based flow cytometry (reference value: 0.940%); assay type: functional; settings: dose 10 µmol/L, at 10 µM
LNCaP [9] = assay: Induction of apoptosis in human LNCaP cells assessed as necrotic cells level at 10 micromol/L incubated for 24 hrs by Annexin V/PI staining staining based flow cytometry (reference value: 0.694%); assay type: functional; settings: dose 10 µmol/L, at 10 µM
[10] = target: Transmembrane protease serine 2 (Homo sapiens) (UniProt O15393); assay: Induction of downregulation of TMPRSS2 (unknown orgin) human LNCaP cells at 10 uM after 24 hrs by Western blot analysis
GES1 = assay: Cytotoxicity against androgen-negative human GES1 cells assessed as cell growth inhibition measured after 72 hrs by SRB assay; assay type: cell-based; settings: GES1, 72 h
[11] = target: T1, Androgen receptor (Homo sapiens); assay: Selective androgen receptor degradation activity at androgen receptor in human LNCaP cells assessed as down regulation of protein level at 10 uM after 72 hrs by Western blot analysis; assay type: cell-based
LNCaP [12] = assay: Induction of cell cycle arrest in human LNCaP cells assessed as accumulation at S phase at 1 micromol/L after 24 hrs by RNase A/PI-staining based flow cytometric analysis (reference value: 20.69%); assay type: functional; settings: dose 1 µmol/L, at 1 µM

Activity [1]: Active | Activity (Progesterone receptor): Active | Activity [2]: Active | pIC50 (LNCaP [4]): 5.76 | pIC50 (SGC-7901): 5.16 | Activity [7]: Active | Activity [10]: Active | Activity [11]: Active
SMILES: CC1(C)C(=O)N(c2ccc(C#N)c(C(F)(F)F)c2)C(=S)N1CCCCCn1cc(COCCOCCOC(=O)CC23CC4CC(CC(C4)C2)C3)nn1
Activity (LNCaP [3]): 14.4% | Activity (LNCaP [5]): 12.65% | Activity (LNCaP [6]): 16.11% | Activity (LNCaP [8]): 6.6% | Activity (LNCaP [9]): 0.024% | pIC50 (GES1): < 4.10 | Activity (LNCaP [12]): 19.84%
